Experimental data from patent publication US7855166B2, “Sulfonylamino(thio)carbonyl compounds” (Bayer Cropscience GmbH, priority 2005, dated 2010).

Experiments:
[1] = system: weed plants such as Sinapis alba, Chrysanthemum segetum, Avena sativa, Stellaria media, Echinochloa crus-galli, Lolium multiflorum, Setaria viridis, Abutilon …; assay: Pre-emergence effect on weeds (greenhouse pot test, visual scoring); assay type: in vivo; settings: applied pre-emergence at a rate of 0.3 kg or less of active substance per hectare; scored after 3 to 4 weeks in comparison to untreated controls
[2] = system: weed plants such as Sinapis alba, Echinochloa crus-galli, Lolium multiflorum, Chrysanthemum segetum, Setaria viridis, Abutilon theophrasti, Amaranthus …; assay: Post-emergence effect on weeds (greenhouse pot test, visual scoring); assay type: in vivo; settings: applied post-emergence (three-leaf stage) at a rate of 0.3 kg or less of active substance per hectare; scored after about 3 to 4 weeks in comparison to untreated controls

Compound	herbicidal action against weed plants (visual scoring of plant damage or emergence damage) [1]	herbicidal action against weed plants (effect scored visually) [2]
CCCOc1nn(C(=O)NS(=O)(=O)c2c(I)cccc2OS(C)(=O)=O)c(=O)n1C1CC1 [Compound 1.718]	very good herbidical action	very good herbicidal action
COc1nn(C(=O)NS(=O)(=O)c2c(I)cccc2OS(=O)(=O)N(C)C)c(=O)n1C [Compound 1.749]	very good herbidical action	very good herbicidal action
CCCOc1nn(C(=O)NS(=O)(=O)c2c(I)cccc2OS(=O)(=O)N(C)C)c(=O)n1C [Compound 1.751]	very good herbidical action	very good herbicidal action
CC(C)Oc1nn(C(=O)NS(=O)(=O)c2c(I)cccc2OS(=O)(=O)N(C)C)c(=O)n1C [Compound 1.752]	very good herbidical action	very good herbicidal action
COc1nn(C(=O)NS(=O)(=O)c2c(I)cccc2OS(=O)(=O)N(C)C)c(=O)n1C1CC1 [Compound 1.754]	very good herbidical action	very good herbicidal action
CCOc1nn(C(=O)NS(=O)(=O)c2c(I)cccc2OS(=O)(=O)N(C)C)c(=O)n1C1CC1 [Compound 1.755]	very good herbidical action	very good herbicidal action
CCCOc1nn(C(=O)NS(=O)(=O)c2c(I)cccc2OS(=O)(=O)N(C)C)c(=O)n1C1CC1 [Compound 1.756]	very good herbidical action	very good herbicidal action
Cc1cccc(I)c1S(=O)(=O)NC(=O)n1nc(C2CC2)n(C2CC2)c1=O [Compound 1.815]	very good herbidical action	very good herbicidal action
COc1ccc(Cl)c(I)c1S(=O)(=O)NC(=O)n1nc(OC)n(C)c1=O [Compound 1.816]	very good herbidical action	very good herbicidal action
CCOc1nn(C(=O)NS(=O)(=O)c2c(OC)ccc(Cl)c2I)c(=O)n1C [Compound 1.817]	very good herbidical action	very good herbicidal action
CCCOc1nn(C(=O)NS(=O)(=O)c2c(OC)ccc(Cl)c2I)c(=O)n1C [Compound 1.818]	very good herbidical action	very good herbicidal action
COc1ccc(Cl)c(I)c1S(=O)(=O)NC(=O)n1nc(OC(C)C)n(C)c1=O [Compound 1.819]	very good herbidical action	very good herbicidal action
COc1ccc(Cl)c(I)c1S(=O)(=O)NC(=O)n1nc(OC)n(C2CC2)c1=O [Compound 1.820]	very good herbidical action	very good herbicidal action
CCCOc1nn(C(=O)NS(=O)(=O)c2c(OC)ccc(Cl)c2I)c(=O)n1C1CC1 [Compound 1.822]	very good herbidical action	very good herbicidal action
COc1nn(C(=O)NS(=O)(=O)c2ccc(F)cc2I)c(=O)n1C [Compound 1.823]	very good herbidical action	very good herbicidal action
CCCOc1nn(C(=O)NS(=O)(=O)c2ccc(F)cc2I)c(=O)n1C [Compound 1.824]	very good herbidical action	very good herbicidal action
COc1nn(C(=O)NS(=O)(=O)c2ccc(F)cc2I)c(=O)n1C1CC1 [Compound 1.825]	very good herbidical action	very good herbicidal action
CCCOc1nn(C(=O)NS(=O)(=O)c2ccc(F)cc2I)c(=O)n1C1CC1 [Compound 1.827]	very good herbidical action	very good herbicidal action
COc1nn(C(=O)NS(=O)(=O)c2cccc(Cl)c2I)c(=O)n1C [Compound 1.828]	very good herbidical action	very good herbicidal action

Compound	herbicidal action against weed plants (visual scoring of plant damage or emergence damage) [1]	herbicidal action against weed plants (effect scored visually) [2]
CCOc1nn(C(=O)NS(=O)(=O)c2cccc(Cl)c2I)c(=O)n1C [Compound 1.829]	very good herbidical action	very good herbicidal action
CCCOc1nn(C(=O)NS(=O)(=O)c2cccc(Cl)c2I)c(=O)n1C [Compound 1.830]	very good herbidical action	very good herbicidal action
CC(C)Oc1nn(C(=O)NS(=O)(=O)c2cccc(Cl)c2I)c(=O)n1C [Compound 1.831]	very good herbidical action	very good herbicidal action
COc1nn(C(=O)NS(=O)(=O)c2cccc(Cl)c2I)c(=O)n1C1CC1 [Compound 1.832]	very good herbidical action	very good herbicidal action
CCOc1nn(C(=O)NS(=O)(=O)c2cccc(Cl)c2I)c(=O)n1C1CC1 [Compound 1.833]	very good herbidical action	very good herbicidal action
CCCOc1nn(C(=O)NS(=O)(=O)c2cccc(Cl)c2I)c(=O)n1C1CC1 [Compound 1.834]	very good herbidical action	very good herbicidal action
COc1nn(C(=O)NS(=O)(=O)c2cc(C(F)(F)F)ccc2I)c(=O)n1C [Compound 1.835]	very good herbidical action	very good herbicidal action
CCOc1nn(C(=O)NS(=O)(=O)c2cc(C(F)(F)F)ccc2I)c(=O)n1C [Compound 1.836]	very good herbidical action	very good herbicidal action
CCCOc1nn(C(=O)NS(=O)(=O)c2cc(C(F)(F)F)ccc2I)c(=O)n1C [Compound 1.837]	very good herbidical action	very good herbicidal action
CC(C)Oc1nn(C(=O)NS(=O)(=O)c2cc(C(F)(F)F)ccc2I)c(=O)n1C [Compound 1.838]	very good herbidical action	very good herbicidal action
COc1nn(C(=O)NS(=O)(=O)c2cc(C(F)(F)F)ccc2I)c(=O)n1C1CC1 [Compound 1.839]	very good herbidical action	very good herbicidal action
CCOc1nn(C(=O)NS(=O)(=O)c2cc(C(F)(F)F)ccc2I)c(=O)n1C1CC1 [Compound 1.840]	very good herbidical action	very good herbicidal action
CCCOc1nn(C(=O)NS(=O)(=O)c2cc(C(F)(F)F)ccc2I)c(=O)n1C1CC1 [Compound 1.841]	very good herbidical action	very good herbicidal action
COc1nn(C(=O)NS(=O)(=O)c2c(Cl)cc(C(F)(F)F)cc2I)c(=O)n1C [Compound 1.842]	very good herbidical action	very good herbicidal action
CCOc1nn(C(=O)NS(=O)(=O)c2c(Cl)cc(C(F)(F)F)cc2I)c(=O)n1C [Compound 1.843]	very good herbidical action	very good herbicidal action
CCCOc1nn(C(=O)NS(=O)(=O)c2c(Cl)cc(C(F)(F)F)cc2I)c(=O)n1C [Compound 1.844]	very good herbidical action	very good herbicidal action
CC(C)Oc1nn(C(=O)NS(=O)(=O)c2c(Cl)cc(C(F)(F)F)cc2I)c(=O)n1C [Compound 1.845]	very good herbidical action	very good herbicidal action
COc1nn(C(=O)NS(=O)(=O)c2c(Cl)cc(C(F)(F)F)cc2I)c(=O)n1C1CC1 [Compound 1.846]	very good herbidical action	very good herbicidal action
CCOc1nn(C(=O)NS(=O)(=O)c2c(Cl)cc(C(F)(F)F)cc2I)c(=O)n1C1CC1 [Compound 1.847]	very good herbidical action	very good herbicidal action
